In test [1] the target is Voltage-gated N-type calcium channel alpha-1B subunit/Amyloid beta A4 precursor protein-binding family A member 1 (Homo sapiens, UniProt Q00975+Q02410). Format: protein assay.
The target of test [2] is T1, Tyrosine-protein phosphatase non-receptor type 22 (Homo sapiens, UniProt Q9Y2R2).
T1 sequence (Q9Y2R2 whole entry): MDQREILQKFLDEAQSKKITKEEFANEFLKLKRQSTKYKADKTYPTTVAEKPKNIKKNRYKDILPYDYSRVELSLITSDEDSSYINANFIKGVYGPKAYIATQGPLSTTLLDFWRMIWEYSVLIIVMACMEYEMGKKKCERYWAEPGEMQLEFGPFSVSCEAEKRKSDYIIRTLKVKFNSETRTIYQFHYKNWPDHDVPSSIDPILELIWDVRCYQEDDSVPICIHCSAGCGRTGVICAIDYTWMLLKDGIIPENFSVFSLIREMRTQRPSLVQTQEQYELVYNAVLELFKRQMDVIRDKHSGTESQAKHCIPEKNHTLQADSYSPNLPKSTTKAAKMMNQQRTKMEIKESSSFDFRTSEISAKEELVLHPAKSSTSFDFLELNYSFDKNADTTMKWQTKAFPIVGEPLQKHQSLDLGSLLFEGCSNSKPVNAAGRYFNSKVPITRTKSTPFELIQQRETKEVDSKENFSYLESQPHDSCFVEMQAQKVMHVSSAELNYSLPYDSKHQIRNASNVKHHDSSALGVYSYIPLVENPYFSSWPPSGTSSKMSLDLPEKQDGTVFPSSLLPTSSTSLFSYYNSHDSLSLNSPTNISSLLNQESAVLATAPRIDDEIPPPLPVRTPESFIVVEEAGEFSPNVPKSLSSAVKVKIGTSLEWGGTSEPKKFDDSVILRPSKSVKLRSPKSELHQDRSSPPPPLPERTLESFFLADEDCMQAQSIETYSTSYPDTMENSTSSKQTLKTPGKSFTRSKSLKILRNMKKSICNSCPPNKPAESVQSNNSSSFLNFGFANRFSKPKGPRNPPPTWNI
Description: SAR LYP1 Fluorescent Assay using OMFP substrate for In Vitro dose response studies - Set 3. [Related pubchem assays (depositor defined):AID1779, AID1784, AID2140, AID2686]. Format: functional.

Test [3] concerns the target T1, Tyrosine-protein phosphatase non-receptor type 22. Kind of test: PubChem AID 2135.
For test [4] the target is unchanged. Description: SAR LYP1 Fluorescent Assay using pCAP substrate for In Vitro dose response studies - Set 2. [Related pubchem assays (depositor defined):AID1779, AID1784, AID2135, AID449727]. Format: functional.
Test [5] deals with T2, Mannose-6-phosphate isomerase (Homo sapiens, UniProt P34949).
T2 sequence (P34949 whole entry): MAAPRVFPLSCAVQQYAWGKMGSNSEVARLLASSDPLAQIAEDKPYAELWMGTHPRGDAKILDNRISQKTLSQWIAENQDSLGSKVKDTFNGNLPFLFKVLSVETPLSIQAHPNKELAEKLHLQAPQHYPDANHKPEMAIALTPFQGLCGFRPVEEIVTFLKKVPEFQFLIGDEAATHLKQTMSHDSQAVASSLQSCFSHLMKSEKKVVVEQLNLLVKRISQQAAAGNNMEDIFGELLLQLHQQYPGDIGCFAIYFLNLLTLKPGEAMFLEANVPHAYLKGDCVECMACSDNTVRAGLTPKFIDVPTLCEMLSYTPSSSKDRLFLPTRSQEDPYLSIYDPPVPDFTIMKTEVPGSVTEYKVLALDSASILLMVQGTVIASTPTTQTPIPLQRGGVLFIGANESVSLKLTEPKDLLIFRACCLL
Kind of test: inhibitors of human PMI, primary screen, biochemical, fluorescence intensity, coupled assay (AID 1209).

The target in the next test is T3, Protein RecA (Mycobacterium tuberculosis, UniProt P9WHJ3).
T3 sequence (P9WHJ3 whole entry): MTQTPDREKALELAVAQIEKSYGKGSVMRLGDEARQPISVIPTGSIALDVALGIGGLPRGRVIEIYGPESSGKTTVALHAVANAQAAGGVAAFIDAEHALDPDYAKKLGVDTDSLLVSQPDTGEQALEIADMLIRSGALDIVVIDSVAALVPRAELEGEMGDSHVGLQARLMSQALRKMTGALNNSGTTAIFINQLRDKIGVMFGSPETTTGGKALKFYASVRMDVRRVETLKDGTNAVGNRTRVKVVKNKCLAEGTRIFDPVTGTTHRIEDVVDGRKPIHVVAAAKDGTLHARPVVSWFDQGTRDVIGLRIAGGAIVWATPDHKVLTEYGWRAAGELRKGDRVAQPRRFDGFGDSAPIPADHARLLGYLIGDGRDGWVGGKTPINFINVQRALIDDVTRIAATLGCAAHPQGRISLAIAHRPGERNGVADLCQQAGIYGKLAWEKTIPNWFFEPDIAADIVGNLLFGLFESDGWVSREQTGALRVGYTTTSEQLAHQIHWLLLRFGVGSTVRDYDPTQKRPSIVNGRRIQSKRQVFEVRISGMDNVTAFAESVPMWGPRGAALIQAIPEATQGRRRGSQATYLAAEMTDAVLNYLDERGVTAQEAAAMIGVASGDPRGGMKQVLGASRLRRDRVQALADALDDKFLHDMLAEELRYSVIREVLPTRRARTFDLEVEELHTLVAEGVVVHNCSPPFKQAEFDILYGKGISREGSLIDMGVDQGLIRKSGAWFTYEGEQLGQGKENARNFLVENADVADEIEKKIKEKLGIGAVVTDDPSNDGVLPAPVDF
Description: Fluorescence Cell-Free Homogeneous Dose Retest to Identify Inhibitors of RecA-Intein Splicing Activity. [Related pubchem assays (depositor defined):AID2097, AID2223, AID489010, AID492950]. Format: functional.

Another test has as its target T4, Caspase-3 (Homo sapiens, UniProt P42574).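 Further: Dose-response selectivity test against caspase-3 for candidate inhibitors of sentrin-specific proteases (SENPs).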
T4 sequence (P42574 whole entry): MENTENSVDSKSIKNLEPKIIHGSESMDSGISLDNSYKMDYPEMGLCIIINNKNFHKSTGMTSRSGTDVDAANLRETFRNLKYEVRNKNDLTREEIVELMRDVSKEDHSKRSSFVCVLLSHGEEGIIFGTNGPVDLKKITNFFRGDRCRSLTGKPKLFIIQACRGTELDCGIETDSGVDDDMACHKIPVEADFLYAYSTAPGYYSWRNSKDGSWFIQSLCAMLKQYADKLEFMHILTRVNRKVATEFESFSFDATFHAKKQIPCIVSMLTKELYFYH
Format: functional.

Structures are written as SMILES. Activity calls are given as the source filed them. For most assays here, no stated cut-off is given here; in the data, actives have a measured IC50 and inactives only a lower limit.

Sequence of Voltage-gated N-type calcium channel alpha-1B subunit/Amyloid beta A4 precursor protein-binding family A member 1 (Q00975 whole entry): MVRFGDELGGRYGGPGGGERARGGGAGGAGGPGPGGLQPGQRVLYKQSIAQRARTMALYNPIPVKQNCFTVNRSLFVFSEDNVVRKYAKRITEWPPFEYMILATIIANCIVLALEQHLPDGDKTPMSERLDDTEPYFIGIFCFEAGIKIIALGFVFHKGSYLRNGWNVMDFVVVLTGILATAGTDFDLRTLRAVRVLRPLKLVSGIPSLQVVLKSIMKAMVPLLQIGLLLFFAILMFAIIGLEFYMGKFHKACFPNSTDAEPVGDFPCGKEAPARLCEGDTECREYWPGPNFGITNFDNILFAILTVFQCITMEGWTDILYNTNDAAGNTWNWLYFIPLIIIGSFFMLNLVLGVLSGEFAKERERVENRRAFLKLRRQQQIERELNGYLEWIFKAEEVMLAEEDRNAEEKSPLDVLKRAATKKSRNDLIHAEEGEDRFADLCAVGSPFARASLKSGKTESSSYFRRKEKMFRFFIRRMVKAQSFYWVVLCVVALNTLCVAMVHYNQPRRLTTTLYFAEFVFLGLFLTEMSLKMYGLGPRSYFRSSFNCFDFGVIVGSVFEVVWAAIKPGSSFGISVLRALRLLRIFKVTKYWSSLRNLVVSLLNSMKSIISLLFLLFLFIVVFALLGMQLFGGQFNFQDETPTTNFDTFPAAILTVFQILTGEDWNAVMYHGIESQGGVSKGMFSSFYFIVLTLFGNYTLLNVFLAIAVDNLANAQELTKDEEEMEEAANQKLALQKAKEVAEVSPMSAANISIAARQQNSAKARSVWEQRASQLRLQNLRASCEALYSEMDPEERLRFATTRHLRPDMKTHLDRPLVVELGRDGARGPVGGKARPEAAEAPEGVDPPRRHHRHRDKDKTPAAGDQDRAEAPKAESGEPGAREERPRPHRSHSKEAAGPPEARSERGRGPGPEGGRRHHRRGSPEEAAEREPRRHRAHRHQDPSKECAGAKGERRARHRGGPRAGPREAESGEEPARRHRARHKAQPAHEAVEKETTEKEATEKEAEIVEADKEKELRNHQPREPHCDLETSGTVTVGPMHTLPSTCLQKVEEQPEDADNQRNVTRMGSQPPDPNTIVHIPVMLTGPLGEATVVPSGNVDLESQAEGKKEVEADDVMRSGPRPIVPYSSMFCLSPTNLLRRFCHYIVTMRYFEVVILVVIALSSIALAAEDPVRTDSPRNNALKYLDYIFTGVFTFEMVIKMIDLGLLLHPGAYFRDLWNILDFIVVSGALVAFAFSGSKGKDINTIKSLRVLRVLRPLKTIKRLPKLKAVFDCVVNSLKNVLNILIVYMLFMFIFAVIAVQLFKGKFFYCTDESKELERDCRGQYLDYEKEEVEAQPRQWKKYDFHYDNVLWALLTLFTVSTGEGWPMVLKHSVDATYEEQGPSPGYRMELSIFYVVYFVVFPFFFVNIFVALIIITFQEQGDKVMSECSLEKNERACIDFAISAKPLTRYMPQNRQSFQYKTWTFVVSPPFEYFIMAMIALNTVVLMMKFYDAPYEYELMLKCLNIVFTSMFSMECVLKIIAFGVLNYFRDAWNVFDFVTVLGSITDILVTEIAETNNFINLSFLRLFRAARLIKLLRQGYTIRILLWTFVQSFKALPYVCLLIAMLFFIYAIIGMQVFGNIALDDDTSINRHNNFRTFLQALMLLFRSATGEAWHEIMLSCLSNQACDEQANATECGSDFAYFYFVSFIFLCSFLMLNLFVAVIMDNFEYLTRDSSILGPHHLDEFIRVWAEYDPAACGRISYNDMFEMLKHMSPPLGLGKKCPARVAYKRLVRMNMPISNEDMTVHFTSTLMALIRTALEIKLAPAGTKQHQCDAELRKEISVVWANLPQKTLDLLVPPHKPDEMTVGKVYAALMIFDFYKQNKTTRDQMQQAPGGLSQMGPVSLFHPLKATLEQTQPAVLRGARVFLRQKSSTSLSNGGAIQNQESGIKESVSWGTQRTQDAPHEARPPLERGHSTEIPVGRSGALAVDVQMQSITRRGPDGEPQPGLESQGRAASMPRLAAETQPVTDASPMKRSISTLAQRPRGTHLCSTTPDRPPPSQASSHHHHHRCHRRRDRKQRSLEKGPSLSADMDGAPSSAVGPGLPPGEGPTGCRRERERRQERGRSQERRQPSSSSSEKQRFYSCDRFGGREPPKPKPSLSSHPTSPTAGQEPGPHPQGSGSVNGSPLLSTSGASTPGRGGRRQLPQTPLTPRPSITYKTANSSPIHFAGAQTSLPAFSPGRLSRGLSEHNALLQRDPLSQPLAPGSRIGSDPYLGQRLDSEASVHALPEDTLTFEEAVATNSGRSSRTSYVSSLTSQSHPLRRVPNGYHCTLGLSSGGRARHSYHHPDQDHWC
Sequence of Voltage-gated N-type calcium channel alpha-1B subunit/Amyloid beta A4 precursor protein-binding family A member 1 (Q02410 whole entry): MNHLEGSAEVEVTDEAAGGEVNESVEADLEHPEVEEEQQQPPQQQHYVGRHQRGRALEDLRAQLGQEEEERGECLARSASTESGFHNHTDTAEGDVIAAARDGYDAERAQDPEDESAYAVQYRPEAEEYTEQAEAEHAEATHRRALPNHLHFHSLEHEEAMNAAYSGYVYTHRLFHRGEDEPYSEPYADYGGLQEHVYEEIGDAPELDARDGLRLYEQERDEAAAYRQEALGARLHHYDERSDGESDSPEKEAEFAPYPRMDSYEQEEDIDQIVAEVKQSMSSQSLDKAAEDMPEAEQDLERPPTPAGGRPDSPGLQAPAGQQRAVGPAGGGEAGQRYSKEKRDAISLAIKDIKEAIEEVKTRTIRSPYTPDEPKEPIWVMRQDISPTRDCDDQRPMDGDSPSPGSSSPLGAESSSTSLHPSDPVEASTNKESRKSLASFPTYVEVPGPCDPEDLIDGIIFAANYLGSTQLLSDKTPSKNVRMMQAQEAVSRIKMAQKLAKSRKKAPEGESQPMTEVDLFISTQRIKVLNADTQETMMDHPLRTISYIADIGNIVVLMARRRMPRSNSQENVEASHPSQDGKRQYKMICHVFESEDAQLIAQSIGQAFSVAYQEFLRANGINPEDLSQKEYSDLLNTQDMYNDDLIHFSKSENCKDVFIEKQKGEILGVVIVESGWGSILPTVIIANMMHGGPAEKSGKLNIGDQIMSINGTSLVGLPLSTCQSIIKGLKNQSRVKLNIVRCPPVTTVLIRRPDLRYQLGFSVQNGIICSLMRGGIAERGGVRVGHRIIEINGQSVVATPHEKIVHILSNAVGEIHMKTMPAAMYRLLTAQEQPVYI

In general, IC50 refers to the concentration at which inhibition is half-maximal. For the molecule `COc1ccc(/C=C2\SC(=S)N(CCC(=O)Nc3ccc(C(=O)O)cc3)C2=O)cc1OC`, the IC50 is 7.89 µM (active) in test [1], 4.09 µM (active) in test [2], 2.96 µM (active) in test [3] and 1.38 µM (active) in test [4].
As usually defined, the EC50 is the concentration giving half of the maximal effect. Regarding `COc1ccc(Nc2ccc3c(c2)=NC2(CCCCC2)[N+]=3[O-])cc1`, the values for the IC50 (in test [5]; at Caspase-3) were > 50 µM (not active) and 88.4 µM (active), respectively. Further, the EC50 at Protein RecA was 4.39 µM (active).
